Assay results from ChEMBL document CHEMBL1130672, “Evaluation of a structure-based statine cyclic diamino amide encoded combinatorial library against plasmepsin II and cathepsin D” (Bioorg Med Chem Lett, 1998).

What was measured:
[1] = target: Cathepsin D (Homo sapiens, UniProt P07339); test: Compound was tested for inhibitory activity against cathepsin D
[2] = target: Plasmepsin II (Plasmodium falciparum, UniProt P46925); test: Inhibitory activity against plasmepsin-2
[3] = system: Plasmodium falciparum; test: Inhibitory concentration for Plasmodium falciparum culture; type: functional, organism-based

Plasmepsin II, sequence (P46925 whole entry): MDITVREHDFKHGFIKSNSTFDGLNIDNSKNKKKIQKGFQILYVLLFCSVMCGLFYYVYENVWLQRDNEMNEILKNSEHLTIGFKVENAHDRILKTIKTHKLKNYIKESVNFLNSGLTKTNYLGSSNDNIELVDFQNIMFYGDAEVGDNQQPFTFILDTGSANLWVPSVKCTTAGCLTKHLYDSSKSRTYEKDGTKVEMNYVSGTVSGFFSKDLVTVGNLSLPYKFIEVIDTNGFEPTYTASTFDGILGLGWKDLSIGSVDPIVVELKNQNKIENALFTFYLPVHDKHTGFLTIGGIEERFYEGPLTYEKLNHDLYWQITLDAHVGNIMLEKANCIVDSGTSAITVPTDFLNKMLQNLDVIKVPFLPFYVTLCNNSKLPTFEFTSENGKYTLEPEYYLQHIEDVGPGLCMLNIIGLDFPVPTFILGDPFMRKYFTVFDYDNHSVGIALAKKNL
Cathepsin D, sequence (P07339 65-162 limits assumed): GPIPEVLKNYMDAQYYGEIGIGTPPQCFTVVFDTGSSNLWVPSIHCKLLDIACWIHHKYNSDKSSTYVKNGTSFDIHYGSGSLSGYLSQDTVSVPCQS
Cathepsin D, sequence (P07339 169-412 limits assumed): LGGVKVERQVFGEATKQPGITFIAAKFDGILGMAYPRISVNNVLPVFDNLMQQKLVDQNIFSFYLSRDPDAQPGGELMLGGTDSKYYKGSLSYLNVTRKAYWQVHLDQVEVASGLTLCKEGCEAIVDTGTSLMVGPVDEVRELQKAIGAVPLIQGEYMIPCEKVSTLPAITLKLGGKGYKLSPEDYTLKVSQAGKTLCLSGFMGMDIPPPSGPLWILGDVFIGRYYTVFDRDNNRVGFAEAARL

## CCCCNC(=O)C[C@H](O)[C@H](Cc1ccccc1)NC(=O)CC1CN(Cc2cc(OC)c(OC)c(OC)c2)CCN1C(=O)c1ccc(OC(C)C)cc1 (some centres undefined)
[1]
  Ki: 5.3 µM
[2]
  IC50: ~40 µM

## CCCCNC(=O)C[C@H](O)[C@H](Cc1ccccc1)NC(=O)CC1CN(Cc2ccc(-c3ccccc3)cc2)CCN1C(=O)CC(CN)c1ccc(Cl)cc1 (some centres undefined)
[1]
  IC50: ~45 µM
[2]
  Ki: 0.49 µM
[3]
  IC50: 3 µM

## CCCCNC(=O)C[C@H](O)[C@H](Cc1ccccc1)NC(=O)C1CN(C(=O)CCCCC(=O)OCC)CCN1C(=O)CCc1cc(OC)c(OC)c(OC)c1 (some centres undefined)
[1]
  Ki: 1.1 µM
[2]
  IC50: ~100 µM

## CCCCNC(=O)C[C@H](O)[C@H](Cc1ccccc1)NC(=O)C1CN(CCOCCc2ccccc2)CCN1C(=O)CCc1cc(OC)c(OC)c(OC)c1 (some centres undefined)
[1]
  Ki: 1.8 µM
[2]
  IC50: ~65 µM
